The values that follow come from paper PMC5453399, “Microfluidic Mobility Shift Assay for Real-Time Analysis of Peptide N-Palmitoylation” (Slas Discovery, 2017).

The target of the experiment is T1, Hhat (Homo sapiens, UniProt Q5VTY9).
T1 construct: Hhat-FLAG-His8 (C-terminal tags kept), stably expressed in HEK293a cells; DDM-solubilized membrane fraction P100(sol) enriched by Ni-NTA
The experiment is described as follows: microfluidic mobility shift assay, stopped. It is filed as biochemical.

T1 sequence (Q5VTY9 whole entry): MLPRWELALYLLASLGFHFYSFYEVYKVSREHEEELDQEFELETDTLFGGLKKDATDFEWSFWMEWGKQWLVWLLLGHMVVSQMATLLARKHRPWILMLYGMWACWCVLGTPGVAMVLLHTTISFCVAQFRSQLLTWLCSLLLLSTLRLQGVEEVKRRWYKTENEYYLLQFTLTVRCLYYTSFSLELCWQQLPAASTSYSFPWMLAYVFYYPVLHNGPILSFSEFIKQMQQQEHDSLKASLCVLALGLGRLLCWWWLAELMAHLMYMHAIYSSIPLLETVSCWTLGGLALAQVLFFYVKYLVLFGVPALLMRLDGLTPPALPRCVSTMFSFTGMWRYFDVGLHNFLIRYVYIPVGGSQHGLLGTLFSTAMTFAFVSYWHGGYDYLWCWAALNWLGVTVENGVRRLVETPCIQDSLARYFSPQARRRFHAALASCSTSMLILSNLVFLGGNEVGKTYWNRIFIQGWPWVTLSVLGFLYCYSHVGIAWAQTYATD

As a reminder, the IC50 is the concentration at which inhibition is half-maximal. `CCC(C)CNCC(=O)N1CCc2sccc2C1c1cccc(C)c1` (stereo not shown) [RUSKI-101]: the IC50 turned out to be 8.32 ± 3.69 µM.
